Laboratory results reported in patent US20230183303A1, “Therapeutic Potential of Peptides from the "Netrin-Like" Domain of the FRZB Protein” (Université de Lorraine, priority 2020, published 2023).

What was measured:
[1] = system: CamKII pathway; assay: Western blot of CamKII pathway activation in ATDC5 micromasses; format: cell-based, mouse; conditions: PEP16 at 100 and 300 ng/mL; pre-mineralization phase of chondrogenesis (D14)
Description: Mouse chondrogenic ATDC5 cells (cartilage-specific chondrogenic strain) were cultured until confluent in maintenance medium containing 1:1 Dulbecco's modified Eagle's medium (DMEM): Ham's F-12 mix (Gibco) supplemented with 1% antibiotic (AB, Penicillin-Streptomycin, Gibco), 5% fetal bovine serum (FBS) (Gibco) and enriched with […] human transferrin (Sigma) and 30 nM sodium selenite (Sigma). Cells were trypsinized, washed and resuspended at 2.10^7 cells/mL in a chondrogenic medium made of maintenance medium enriched by 1× of ITS premix (resulting in 10 μg/mL insulin, 10 μg/mL human transferrin and 30 nM sodium selenite) (Life technologies). One droplet of cell suspension (10 μL) was placed at the center of each well of a 24-well plate. Cells were allowed to adhere for 2 h at 37° C., followed by addition of 500 μL chondrogenic medium supplemented. […] After 14 days, induction of hypertrophic differentiation and mineralization was induced by the mineralization medium made of α-MEM medium (Gibco) containing 1% AB, 5% FBS, 5 μg/ml human transferrin, 1× of ITS premix, 50 μg/ml ascorbic acid-2-phosphate (AA) (Sigma) and 10 mM β-glycerophosphate (BGP) (Sigma). […] Micromasses were collected at time points 1, 7, 14 21 and 28 days. Each time point was processed in three technical replicates. The medium was changed every other day. […]

[2] = system: MMP13; assay: MMP13 enzymatic activity in culture supernatants of mouse articular chondrocytes; format: cell-based; conditions: PEP16 at 300 ng/mL with IL1β at 100 pg/mL; 24 h
Description: Mouse articular chondrocyte (MACs) were isolated from femoral heads by enzymatic digestion of whole femoral head caps. Samples were washed three times in 1% AB/phosphate buffered saline (PBS) and incubated with 2 mg/ml pronase (Roche)/DMEM-F12 at 37° C. for 1 h at slow rotation 100 rpm followed by a 3 h incubation with 1.5 mg/ml collagenase B (Roche)/DMEM-F12 at 37° C. Cells were seeded at 1×10^6 cells/[…], and cultured for 7 to 14 days in growth medium DMEM-F12, containing 1% AB (Gibco), 10% FBS (Gibco) and 5% L-glutamine (Thermoscientific). Passage 1 cells were utilized for the experiments. The culture supernatants were then harvested in order to perform MMP13 enzymatic activity assay. The evaluation of the expression of genes of interest included articular chondrocyte markers (aggrecan, type 2 collagen (col2a1)), YAP/TAZ target genes (ankrd) and pro-catabolic enzyme involved in the pathophysiology of OA (mmp3).
The MMP13 enzymatic activity was assessed using the MMP13 fluorogenic substrate (Merck Millipore). Briefly, culture supernatants harvested at the end of the different experiments were mixed with 1.5 mM of 4-aminophenylmercuric acetate, and incubated for 1 h at 37° C., in order to turn every pro-MMPs into active MMPs. […] Fluorescence was evaluated using the following parameters, excitation 325 nm and emission 393 nm, on the Varioskan Flash device (Thermo Fisher Scientific). […]

DRLGKKVKRWDMKLRH (PEP16) [peptide derived from the netrin-like domain of the FRZB protein]
CamKII pathway activation (P-CamKII over total) [1]: increased the activation of the CamKII pathway | IL1β-induced MMP13 enzymatic activity in culture supernatant [2]: significantly reduced
